Measurements: publication PMC11671014 (PLOS Pathogens, 2024)
Several values for one entry are separate records, joined by “and”; a condition that tells them apart may be missing. Identical values can stand only once.

Legend:
PfTyrRS [1] = target: T1, PfTyrRS (Plasmodium falciparum, UniProt Q8IAR7); assay: ATP consumption by PfTyrRS (Kinase Glo); assay type: biochemical; conditions: Inhibition of PfTyrRS (Kinase Glo) IC50, PfTyrRS 25 nM, ATP 10 μM, tyrosine 200 μM, cognate tRNA^Tyr 4.8 μM, 37°C 1 h
Method: Consumption of ATP was measured using a luciferase-based assay as per the manufacturer’s instructions (Kinase-Glo Luminescent Kinase Assay, Promega).

[2] = tested on: P. falciparum (3D7, ring stage) cultures; conditions: read-out: P. falciparum 72-h IC50 (3D7); 3D7, 72 h exposure; ref [16]; cited from earlier work
HCT116 = conditions: read-out: HCT116 IC50_72h; 72 h; ref [16]; cited from earlier work
PfTyrRS [3] = target: T1, PfTyrRS; assay: Differential scanning fluorimetry (DSF) of PfTyrRS; assay type: binding
Method: The effect on ML471 and analogues on the thermal stability of TyrRS enzymes was assayed as previously described. […] SYPRO Orange (Sigma-Aldrich; 5,000X concentrate in DMSO) was added to the reaction mixture at a final concentration of 5X. 25 μL of the sample was added into each well of a 96-well qPCR plate (Applied Biosystems). The plate was sealed and analysed using StepOnePlus Real-Time PCR system (Applied Biosystems). The samples were heated from 20°C to 90°C with a 1% continuous gradient. The thermal unfolding curve was plotted as the first derivative curve of the raw fluorescence values. The melting temperature (Tm), defined as the peak of the first derivative curve, was used to assess the thermal stability of protein-ligand complexes.

T1 sequence (Q8IAR7 entry or part of it): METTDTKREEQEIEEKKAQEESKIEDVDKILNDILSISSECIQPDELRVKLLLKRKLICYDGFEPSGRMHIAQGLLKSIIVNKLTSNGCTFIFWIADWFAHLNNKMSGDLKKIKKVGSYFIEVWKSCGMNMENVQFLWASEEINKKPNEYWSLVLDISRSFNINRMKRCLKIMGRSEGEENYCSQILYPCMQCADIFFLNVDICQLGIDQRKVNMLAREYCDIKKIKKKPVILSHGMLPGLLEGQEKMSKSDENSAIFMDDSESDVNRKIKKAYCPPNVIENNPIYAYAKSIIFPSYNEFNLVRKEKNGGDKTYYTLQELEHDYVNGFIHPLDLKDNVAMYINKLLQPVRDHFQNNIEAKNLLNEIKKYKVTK

In the case of `Nc1ncnc2c1ncn2[C@@H]1O[C@H](COS(N)(=O)=O)[C@@H](O)[C@H]1O` [AMS, adenosine 5’-monosulfamate, reference compound], the IC50 (PfTyrRS [1]) is listed as 51700 nM and 52000 nM, the IC50 [2] is listed as 1.8 ± 0.6 nM and the IC50 (HCT116) is listed as 26 nM. For the same compound, the Kd (PfTyrRS [3]) was 1.3 nM, the ΔTm at 50 µM (PfTyrRS [3]; 2 h, read-out: PfTyrRS binding (DSF) Delta Tm) was 13.6 ± 0.7 °C and the “PfTyrRS Tm” value (PfTyrRS [3]; with sulfamate, ATP, tyrosine and tRNA, apo 49.9 ± 0.6) was 63.5 ± 0.7 °C.
